Assay results as given in patent US9957271B2, “Substituted bicyclic aza-heterocycles and analogues as sirtuin modulators” (GlaxoSmithKline, LLC, priority 2012, dated 2018).
Like-named read-outs stand apart in the source and are kept apart here.

Target: T1, SIRT1 (Homo sapiens, UniProt Q96EB6)
T1 sequence (Q96EB6 1-747): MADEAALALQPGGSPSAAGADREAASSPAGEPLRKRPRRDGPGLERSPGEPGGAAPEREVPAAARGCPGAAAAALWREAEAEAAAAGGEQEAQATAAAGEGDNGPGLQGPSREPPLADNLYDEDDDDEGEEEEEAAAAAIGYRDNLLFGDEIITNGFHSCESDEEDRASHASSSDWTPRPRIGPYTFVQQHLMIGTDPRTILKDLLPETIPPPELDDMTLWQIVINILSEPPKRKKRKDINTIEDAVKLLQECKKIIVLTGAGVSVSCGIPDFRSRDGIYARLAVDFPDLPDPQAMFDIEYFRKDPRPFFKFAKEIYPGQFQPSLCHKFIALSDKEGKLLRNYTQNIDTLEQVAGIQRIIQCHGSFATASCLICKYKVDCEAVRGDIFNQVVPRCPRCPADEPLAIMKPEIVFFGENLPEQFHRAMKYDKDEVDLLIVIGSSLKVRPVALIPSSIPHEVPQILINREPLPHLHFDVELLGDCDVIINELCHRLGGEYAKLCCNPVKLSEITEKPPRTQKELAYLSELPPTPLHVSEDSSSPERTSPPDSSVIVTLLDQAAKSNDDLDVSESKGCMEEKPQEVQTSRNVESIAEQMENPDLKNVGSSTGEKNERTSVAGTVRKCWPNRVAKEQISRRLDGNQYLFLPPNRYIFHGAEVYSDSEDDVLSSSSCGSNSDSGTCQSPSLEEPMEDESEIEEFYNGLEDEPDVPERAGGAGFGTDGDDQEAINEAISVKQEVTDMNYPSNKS
Test: Trp mass spectrometry assay of SIRT1 activity
Format: biochemical
Settings: for Trp EC1.5 (μM): concentration giving 150% activation of SIRT1; for Emax: read-out: Trp % Fold Act
Text: Mass spectrometry based assays were used to identify modulators of SIRT1 activity. The TAMRA based assay utilized a peptide having 20 amino acid residues as follows: Ac-EE-K(biotin)-[…](Ac)NleSTEG-K(5TMR)-EE-NH2 (SEQ ID NO: 1), wherein K(Ac) is an acetylated lysine residue and Nle is a norleucine. The peptide was labeled with the fluorophore 5TMR (excitation 540 nm/emission 580 nm) at the C-terminus. The sequence of the peptide substrate was based on p53 with several modifications. In addition, the methionine residue naturally present in the sequence was replaced with the norleucine because the methionine may be susceptible to oxidation during synthesis and purification. The Trp based assay utilized a peptide having an amino acid residues as follows: Ac-R-H-K-K(Ac)-W-NH2 (SEQ ID NO: 2).
The Trp mass spectrometry assay was conducted as follows. 0.5 μM peptide substrate and 120 μM βNAD^+ were incubated with 10 nM SIRT1 for 25 minutes at 25° C. in a reaction buffer (50 mM HEPES pH 7.5, […], 1 mM DTT, 0.05% BSA). The SIRT1 protein was obtained by cloning the SirT1 gene into a T7-promoter containing vector, which was then expressed in BL21(DE3) bacterial cells and purified as described in further detail below. Test compound was added at varying concentrations to this reaction mixture and the resulting reactions were monitored. After the 25 minute incubation with SIRT1, 10 μL of 10% formic acid was added to stop the reaction. The resulting reactions were sealed and frozen for later mass spec analysis. The relative SIRT1 activity was then determined by measuring the amount of O-acetyl-ADP-ribose (OAADPR) formed (or, alternatively, the amount of deacetylated Trp peptide generated) by the NAD-dependent sirtuin deacetylation reaction in the presence of varying concentrations of the test compound versus control reactions lacking the test compound. The degree to which the test agent activated deacetylation by SIRT1 was expressed as EC1.5 (i.e., the concentration of compound required to increase SIRT1 activity by 50% over the control lacking test compound), and Percent Maximum Activation (i.e., the maximum activity relative to control (100%) obtained for the test compound).
A control for inhibition of sirtuin activity was conducted by adding 1 μL of 500 mM nicotinamide as a negative control at the start of the reaction (e.g., permits determination of maximum sirtuin inhibition). A control for activation of sirtuin activity was conducted using 10 nM of sirtuin protein, with 1 μL of DMSO in place of compound, to determine the amount of deacetylation of the substrate at a given time point within the linear range of the assay. This time point was the same as that used for test compounds and, within the linear range, the endpoint represents a change in velocity.
For the above assay, SIRT1 protein was expressed and purified as follows. The SirT1 gene was cloned into a T7-promoter containing vector and transformed into BL21(DE3). The protein was expressed by induction with 1 mM IPTG as an N-terminal His-tag fusion protein at 18° C. overnight and harvested at 30,000×g. Cells were lysed with lysozyme in lysis buffer (50 mM Tris-HCl, 2 mM Tris[2-carboxyethyl]phosphine (TCEP), 10 μM ZnCl2, 200 mM NaCl) and further treated with sonication for […] for complete lysis. The protein was purified over a Ni-NTA column (Amersham) and fractions containing pure protein were pooled, concentrated and run over a sizing column (Sephadex S200 26/60 global). The peak containing soluble protein was collected and run on an Ion-exchange column (MonoQ). Gradient elution (200 mM-500 mM NaCl) yielded pure protein. This protein was concentrated and dialyzed against dialysis buffer (20 mM Tris-HCl, 2 mM TCEP) overnight. The protein was aliquoted and frozen at −80° C. until further use.

[1] = Trp assay, percent maximum fold activation
[2] = percent maximum fold activation of SIRT1, Trp peptide substrate

Trp EC1.5 (μM) (Trp assay)	Emax [1] [%]	Emax [2] [%]	SMILES
		< 350	C[C@H]1CCCN1c1ccc2ncc(C(=O)Nc3cccnc3)n2n1 [Compound 1056]
	< 350		O=C(Nc1cncc(F)c1)c1cnc2ccc(N3CC[C@H](O)C3)nn12 [Compound 985]
C (EC1.5>25 μM)	< 350		O=C(Nc1ccncc1F)c1cnc2ccc(N3CCCC3)nn12 [Compound 898]
		< 350	C[C@H]1CCCN1c1ccc2ncc(C(=O)Nc3ccc(F)cn3)n2n1 [Compound 1052]
C (EC1.5>25 μM)	< 350		O=C(Nc1ccc(F)cn1)c1cnc2ccc(N3CCCC3)nn12 [Compound 897]
B (EC1.5 1-25 μM)	< 350		O=C(Nc1cccnn1)c1cnc2ccc(N3CC[C@H](F)C3)nn12 [Compound 856]
	≥ 350		CC1CCN(c2ccc3ncc(C(=O)Nc4cccnc4)n3n2)C1 (stereo not shown) [Compound 976]
	< 350		CC1CCN(c2ccc3ncc(C(=O)Nc4ccncn4)n3n2)C1 (stereo not shown) [Compound 992]
B (EC1.5 1-25 μM)	< 350		CN(C)[C@H]1CCN(c2ccc3ncc(C(=O)Nc4ccncc4F)n3n2)C1 [Compound 869]
	< 350		CN1CCN(c2ccc3ncc(C(=O)Nc4ccncc4F)n3n2)CC1 [Compound 949]
	< 350		CC1(C)CCN(c2ccc3ncc(C(=O)Nc4ccncc4F)n3n2)C1 [Compound 960]
B (EC1.5 1-25 μM)	≥ 350		O=C(Nc1cccnn1)c1cnc2ccc(N3CCC(F)(F)C3)nn12 [Compound 904]
B (EC1.5 1-25 μM)	< 350		O=C(Nc1cccnc1)c1cnc2ccc(N3CCC(F)(F)C3)nn12 [Compound 908]
		≥ 350	C[C@@H]1CN(c2ccc3ncc(C(=O)Nc4cccnc4)n3n2)CCO1 [Compound 1002]
A (EC1.5<1 μM)	≥ 350		O=C(Nc1cncc(F)c1)c1cnc2ccc(N3CCCC(C(F)(F)F)C3)nn12 (stereo not shown) [Compound 910]
B (EC1.5 1-25 μM)	< 350		O=C(Nc1ccc(F)cn1)c1cnc2ccc(N3CCC(F)(F)C3)nn12 [Compound 907]
	≥ 350		O=C(Nc1cccnn1)c1cnc2ccc(N3CCC[C@H](F)C3)nn12 [Compound 989]
C (EC1.5>25 μM)	< 350		O=C(Nc1cccnn1)c1cnc2ccc(N3CCCC3)nn12 [Compound 895]
C (EC1.5>25 μM)	< 350		CN1CCN(c2ccc3ncc(C(=O)Nc4cccnc4)n3n2)CC1 [Compound 946]
		< 350	Cc1cncc(NC(=O)c2cnc3ccc(N4CCC[C@@H]4C)nn23)c1 [Compound 1058]
		≥ 350	O=C(Nc1cnc2c(c1)COCC2)c1cnc2ccc(N3CCCC3C(F)(F)F)nn12 (stereo not shown) [Compound 1095]

The next lines start with the compound.

SMILES	Trp EC1.5 (μM) (Trp assay)	Emax [1] [%]	Emax [2] [%]
Cc1cc(NC(=O)c2cnc3ccc(-c4cccc(OC[C@H](O)CO)c4)nn23)ccn1 [Compound 875]	C (EC1.5>25 μM)	< 350	
C[C@@H]1CN(c2ccc3ncc(C(=O)Nc4cccnn4)n3n2)C[C@H](C)O1 [Compound 996]		≥ 350	
O=C(Nc1cncc(F)c1)c1cnn2ccc(N3CCCC3C(F)(F)F)nc12 (stereo not shown) [Compound 1001]			≥ 350
O=C(Nc1cccnn1)c1cnc2ccc(N3CCC(F)(F)CC3)nn12 [Compound 930]	B (EC1.5 1-25 μM)	≥ 350	
Cc1nn2ccc(N3CCC[C@@H]3C(F)(F)F)nc2c1C(=O)Nc1cccnn1 [Compound 1075]			≥ 350
O=C(Nc1cncc(F)c1)c1cnn2ccc(N3CCC[C@@H]3C(F)(F)F)nc12 [Compound 1089]			< 350
Cc1cncc(NC(=O)c2cnn3ccc(N4CCC[C@H]4C(F)(F)F)nc23)c1 [Compound 1027]			≥ 350
Cc1cccc(NC(=O)c2c(C)nc3c(OC[C@H](O)CO)cc(-c4ccccc4C(F)(F)F)nn23)n1 [Compound 849]	A (EC1.5<1 μM)	≥ 350	
O=C(Nc1cccnc1)c1cnn2ccc(N3CCC(C(F)(F)F)C3)nc12 (stereo not shown) [Compound 1012]			≥ 350
Cc1nn2ccc(N3CCC[C@@H]3C(F)(F)F)nc2c1C(=O)Nc1cnccn1 [Compound 1084]			≥ 350
Cc1cc(NC(=O)c2c(C)nc3c(OC[C@H](O)CO)cc(-c4ccccc4C(F)(F)F)nn23)nc(C)n1 [Compound 850]	A (EC1.5<1 μM)	≥ 350	
O=C(Nc1ccccn1)c1cnc2ccc(N3CCC(F)(F)CC3)nn12 [Compound 927]	B (EC1.5 1-25 μM)	≥ 350	
Cc1ccc(NC(=O)c2c(C)nc3c(OC[C@H](O)CO)cc(-c4ccccc4C(F)(F)F)nn23)cn1 [Compound 865]	A (EC1.5<1 μM)	≥ 350	
O=C(Nc1cccnn1)c1cnn2ccc(N3CCCCC3C(F)(F)F)nc12 (stereo not shown) [Compound 1021]			≥ 350
Cc1cnc(NC(=O)c2c(C)nc3c(OC[C@H](O)CO)cc(-c4ccccc4C(F)(F)F)nn23)s1 [Compound 861]	A (EC1.5<1 μM)	≥ 350	
Cc1nn2ccc(N3CCC[C@H]3C(F)(F)F)nc2c1C(=O)Nc1cccnc1 [Compound 1047]			≥ 350
Cc1nc2c(OC[C@H](O)CO)cc(-c3ccccc3C(F)(F)F)nn2c1C(=O)Nc1ccccn1 [Compound 842]	A (EC1.5<1 μM)	≥ 350	
Cc1nc(NC(=O)c2c(C)nn3ccc(N4CCC[C@H]4C(F)(F)F)nc23)sc1C [Compound 1033]			≥ 350
Cc1nc(NC(=O)c2cnn3ccc(N4CCCCC4C(F)(F)F)nc23)sc1C (stereo not shown) [Compound 965]		≥ 350	
Cc1cncc(NC(=O)c2cnn3ccc(N4CCC[C@@H]4C(F)(F)F)nc23)c1 [Compound 1077]			≥ 350
CC1(C)CCN(c2ccc3ncc(C(=O)Nc4ccccn4)n3n2)C1 [Compound 952]		≥ 350	
CC1CCCN1c1ccn2ncc(C(=O)Nc3cccnc3)c2n1 (stereo not shown) [Compound 1044]			≥ 350
Cc1nc2ccc(N3CC[C@H](F)C3)nn2c1C(=O)Nc1ccc(F)cn1 [Compound 844]	B (EC1.5 1-25 μM)	< 350	
O=C(Nc1ccccn1)c1cnn2ccc(N3CCC[C@H]3C(F)(F)F)nc12 [Compound 1029]			≥ 350
COc1nccc(NC(=O)c2cnn3ccc(N4CCC(C(F)(F)F)CC4)nc23)n1 [Compound 1064]			≥ 350
Cc1cncc(NC(=O)c2c(C)nn3ccc(N4CCC[C@@H]4C(F)(F)F)nc23)c1 [Compound 1072]			≥ 350
Cc1nc2ccc(N3CCCC(F)(F)C3)nn2c1C(=O)Nc1cccnn1 [Compound 994]		≥ 350	
